Legend:
Experiment in all cases: relative viability (nuclei count vs DMSO), 5 days (fraction); higher = more cells survive
Mirin + AZD7762 = compound: N=C1NC(=O)/C(=C/c2ccc(O)cc2)S1 [Mirin] + NC(=O)Nc1cc(-c2cccc(F)c2)sc1C(=O)N[C@H]1CCCNC1 [AZD7762] (partner 0.2 µM)
In short: (§1)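 Nuclei were stained with Hoechst during a one-step fixation (final 0.05% Triton X-100, 1% formaldehyde, 1 ug/ml Hoechst) carried out 5 days after dosing, then counted on 4× images. The cells, lung cancer lines in 1536-well plates, had been dosed by pin tool the day after seeding with one drug alone or a fixed anchor-drug dose plus five library-drug doses (not always all listed) in √10 steps. Relative viability is the nuclei count in treated wells divided by that in vehicle wells, and each value is the median of duplicate plates.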

[1] = compound: CCn1c(-c2nonc2N)nc2cnc(Oc3cccc(NC(=O)c4ccc(OCCN5CCOCC5)cc4)c3)cc21 + Cc1cc(Nc2cc(N3CCN(C)CC3)nc(Sc3ccc(NC(=O)C4CC4)cc3)n2)n[nH]1 [Tozasertib] (partner 0.1 µM)
In short: as §1

[2] = compound: CCC1=CN=CN=C1N2CCN(CC2)CC3=NC4=C(N3)C=C(C=C4)C(F)(F)F + Cc1cc(Nc2cc(N3CCN(C)CC3)nc(Sc3ccc(NC(=O)C4CC4)cc3)n2)n[nH]1 [Tozasertib] (partner 0.1 µM)
In short: as §1

[3] = compound: CCn1c(-c2nonc2N)nc2cnc(Oc3cccc(NC(=O)c4ccc(OCCN5CCOCC5)cc4)c3)cc21 + CCNC(=O)c1noc(-c2cc(C(C)C)c(O)cc2O)c1-c1ccc(CN2CCOCC2)cc1 [Luminespib] (partner 0.01 µM)
In short: as §1

Row | Cell Line | relative viability (Mirin + AZD7762; first compound 0.25 µM) | relative viability (Mirin + AZD7762; first compound 0.7906 µM) | relative viability (Mirin + AZD7762; first compound 2.5 µM) | relative viability (Mirin + AZD7762; first compound 7.906 µM) | relative viability (Mirin + AZD7762; first compound 25 µM) | relative viability ([1]; first compound 0.04 µM) | relative viability ([1]; first compound 0.1265 µM) | relative viability ([1]; first compound 0.4 µM) | relative viability ([1]; first compound 1.265 µM) | relative viability ([1]; first compound 4 µM) | relative viability ([2]; first compound 0.04 µM) | relative viability ([2]; first compound 0.1265 µM) | relative viability ([2]; first compound 0.4 µM) | relative viability ([2]; first compound 1.265 µM) | relative viability ([2]; first compound 4 µM) | relative viability ([3]; first compound 0.04 µM) | relative viability ([3]; first compound 0.1265 µM) | relative viability ([3]; first compound 0.4 µM) | relative viability ([3]; first compound 1.265 µM) | relative viability ([3]; first compound 4 µM)
1 | NCI-H460 | 0.625 | 0.921 | 0.665 | 0.661 | 0.876 | 0.563 | 0.601 | 0.311 | 0.036 | 0.0635 | 0.437 | 0.403 | 0.404 | 0.315 | 0.4 | 0.0313 | 0.0331 | 0.0317 | 0.0272 | 0.0222
2 | NCI-H1975 | 0.699 | 0.91 | 0.689 | 0.729 | 0.725 | 0.661 | 0.549 | 0.491 | 0.121 | 0.0969 | 0.732 | 0.785 | 0.679 | 0.61 | 0.689 | 0.229 | 0.136 | 0.199 | 0.139 | 0.125
3 | NCI-H2085 | 0.929 | 1.11 | 0.979 | 1.02 | 0.883 | 0.961 | 0.8 | 0.733 | 0.633 | 0.538 | 0.815 | 0.71 | 0.794 | 0.698 | 0.633 | 0.535 | 0.395 | 0.373 | 0.365 | 0.377
4 | H3255 | 0.899 | 0.958 | 0.943 | 0.738 | 0.867 | 0.758 | 0.5 | 0.706 | 0.377 | 0.325 | 0.63 | 0.413 | 0.674 | 0.436 | 0.715 | 1.02 | 0.819 | 0.735 | 0.571 | 0.599
5 | NCI-H2126 | 1.11 | 1.03 | 1.05 | 1.11 | 0.951 | 0.898 | 0.849 | 0.861 | – | 0.378 | 0.837 | 0.812 | 0.813 | 0.734 | 0.832 | 1.06 | 0.903 | 0.776 | – | 0.635
6 | LC-2-ad | 0.836 | 0.812 | 0.825 | 0.933 | 0.817 | 0.517 | 0.365 | 0.418 | 0.294 | 0.328 | 0.442 | 0.497 | 0.424 | 0.406 | 0.413 | 0.937 | 0.801 | 0.715 | 0.568 | 0.752
7 | RERF-LC-KJ | 1.17 | 0.878 | 0.953 | 0.814 | 1.08 | 0.528 | 0.318 | 0.283 | 0.249 | 0.217 | 0.517 | 0.503 | 0.464 | 0.459 | 0.398 | 1.35 | 1.21 | 1.04 | 0.795 | 0.64
8 | HCC-15 | 0.589 | 0.973 | 1.33 | 1.28 | 1.18 | 0.451 | 0.403 | 0.417 | 0.278 | 0.258 | 0.444 | 0.357 | 0.381 | 0.449 | 0.391 | 0.301 | 0.227 | 0.376 | 0.207 | 0.249
9 | NCI-H596 | 1 | 1.02 | 1.09 | 1.05 | 1.11 | 1.24 | 0.945 | 0.828 | 0.743 | 1.01 | 0.921 | 0.949 | 0.758 | – | 1.04 | 1.28 | 1.1 | 1.01 | 0.979 | 0.97
10 | LU99A | 0.351 | 0.349 | 0.355 | 0.294 | 0.28 | 0.293 | 0.295 | 0.295 | 0.233 | 0.199 | 0.268 | 0.281 | 0.282 | 0.278 | 0.297 | 0.264 | 0.221 | 0.286 | 0.26 | 0.249
11 | NCI-H1666 | 0.908 | 1.06 | 0.909 | 0.757 | 0.917 | 0.65 | 0.675 | 0.582 | 0.368 | 0.326 | 0.556 | 0.723 | 0.575 | 0.569 | 0.635 | 1.2 | 1.24 | 1.27 | 0.907 | 0.478
12 | NCI-H2170 | 0.926 | 0.752 | 0.823 | 0.849 | 0.848 | 0.743 | 0.651 | 0.786 | 0.553 | 0.515 | 0.719 | 0.74 | 0.648 | 0.662 | 0.643 | 0.344 | 0.453 | 0.926 | 0.478 | 0.474
13 | NCI-H522 | 0.813 | 0.805 | 0.83 | 0.861 | 0.595 | 0.474 | 0.478 | 0.544 | 0.509 | 0.482 | 0.59 | 0.591 | 0.467 | 0.518 | 0.499 | 1.04 | 1.27 | 0.853 | 0.797 | 0.767
14 | LCLC-97TM1 | 0.212 | – | 0.263 | – | 0.329 | 0.201 | 0.271 | 0.192 | 0.249 | 0.222 | 0.209 | 0.196 | 0.234 | 0.207 | 0.205 | 0.923 | 0.728 | 0.664 | 0.882 | 0.856
15 | NCI-H322M | 0.508 | 0.653 | 0.51 | 0.551 | 0.57 | 0.481 | 0.466 | 0.459 | 0.366 | 0.403 | 0.485 | 0.446 | 0.485 | 0.469 | 0.488 | 1.25 | 1.16 | 0.931 | 0.434 | 0.587
16 | NCI-H1395 | 0.402 | – | 0.419 | 0.434 | 0.393 | 0.916 | 0.799 | 0.701 | 0.38 | 0.493 | 0.733 | 0.807 | 0.715 | 0.698 | 0.756 | 0.674 | 0.849 | 0.538 | 0.384 | 0.449

Source: the supplement of paper PMC10307832
